{
  "source": "patent US20240033208A1",
  "about": "“BOTANICAL EXTRACT BLEND FOR USE IN SKIN CARE” (Shaklee Corporation, priority 2022, published 2024)",
  "key": {"[1]": {"system": "AGE formation in collagen", "assay": "Collagen AGE prevention assay", "format": "biochemical", "description": "AGE Prevention—50 μl of ice-cold collagen solution was added to the wells of a 96 well plate. The plate was incubated overnight at 37° C. to allow the collagen solution to gel. On the following day, 40 μl of either test material (prepared in assay buffer), aminoguanidine (positive control), or assay buffer (negative control) was added to the plate. After the materials were added, 10 μl of a 500 mM glyceraldehyde solution was added to all of the wells. The plate was then read using a fluorometer (355 nm excitation and 405 nm emission) and then incubated for 24 hours in a humidified incubator at 37C. On the following day the plate was read again. AGE formation was determined by subtracting the […] for each sample."}, "[2]": {"system": "preexisting AGEs in collagen", "assay": "Collagen AGE reduction assay", "format": "biochemical", "description": "AGE Reduction—50 μl of ice-cold collagen solution was added to the wells of a 96 well plate. The plate was then incubated overnight at 37C to allow the collagen solution to gel. On the following day, 10 μl of a 500 mM glyceraldehyde solution was added to all of the wells and the plate was incubated for 24 hours in a humidified incubator at 37° C. On the following day 40 μl of either test material (prepared in assay buffer), aminoguanidine (positive control), or assay buffer (negative control) was added to the plate. The plate was then read using a fluorometer (355 nm excitation and 405 nm emission) and then incubated again for 24 hours in a humidified incubator at 37C. On the following day the plate was read again. AGE formation was determined by subtracting the initial fluorescent measurement from the final fluorescent measurement for each sample."}, "human recombinant MMP-1": {"biological_target": "T1, human recombinant MMP-1 (Homo sapiens, UniProt P03956)", "T1 sequence (P03956 100-469)": "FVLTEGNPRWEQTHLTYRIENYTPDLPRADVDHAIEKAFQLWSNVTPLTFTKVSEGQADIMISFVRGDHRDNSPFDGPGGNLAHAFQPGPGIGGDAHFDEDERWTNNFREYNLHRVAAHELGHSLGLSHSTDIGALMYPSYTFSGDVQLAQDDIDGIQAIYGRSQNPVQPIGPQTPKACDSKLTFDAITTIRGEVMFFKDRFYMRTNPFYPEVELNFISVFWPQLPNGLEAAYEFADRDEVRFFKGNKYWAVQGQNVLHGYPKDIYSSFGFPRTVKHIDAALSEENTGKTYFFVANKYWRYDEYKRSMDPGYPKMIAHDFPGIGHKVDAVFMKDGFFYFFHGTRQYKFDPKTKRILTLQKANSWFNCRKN", "assay": "Collagenase (MMP-1) inhibition (thiopeptolide/DTNB, 412 nm)", "format": "biochemical", "source_text": "Matrix Metalloproteinase-1 (MMP-1) is an extracellular protease with an approximate molecular weight of 52-56 kD in its latent form. Upon cleavage of the proenzyme, the 22-46 kD MMP-1 becomes an active enzyme and can degrade many substrates including collagen, gelatin, and entactin. In human skin, increased MMP-1 activity can be induced via some disease states, exposure to UV irradiation or as part of the natural aging process. This can result in an imbalanced state where the degradation of collagen by MMP-1 exceeds its rate of replacement. Therefore, materials that inhibit MMP-1 activity can be beneficial for skin care. To screen inhibitors of MMP-1, human recombinant MMP-1 was incubated in the presence of a thiopeptolide substrate, potential inhibitors, and 5,5′-dithiobis(2-nitrobenzoic acid) (DTNB). When the thiopeptolide substrate is broken down by MMP-1, it releases a sulfhydryl group that can react with DTNB and form 2-nitro-5-thiobenzoic acid, which can be detected spectrophotometrically at 412 nm. Thus, in the presence of inhibitors, absorbance will be decrease relative to the non-inhibited enzyme."}, "elastase": {"system": "elastase", "assay": "Elastase inhibition (fibroblast lysate, STANA substrate, 405 nm)", "format": "biochemical, human", "description": "Human dermal fibroblasts were cultured and used as a source of the elastase enzyme. Elastase was partially purified from fibroblasts by lysing the cells in an elastase buffer and retaining the soluble portion of the lysate. Portions of this fibroblast lysate were then be incubated with test materials and a synthetic elastase substrate, Suc-([…])-p-Nitroaniline (STANA). Elastase acts upon the substrate, releasing p-nitroaniline, which can be detected with a spectrophotometer by measuring absorbance at a wavelength of 405 nm. Inhibition of elastase enzyme is indicated by a decrease in the amount of released p-nitroaniline as compared to the uninhibited enzyme."}, "[3]": {"system": "MatTek EpiDerm tissue (UVB induced CPD formation in genomic DNA)", "assay": "Cyclobutane pyrimidine dimer (CPD) assay, UVB, ELISA", "format": "cell-based, human", "details": "for CPD in genomic DNA: pretreated overnight before UVB", "description": "The testing system used for this assay was the MatTek EpiDerm, a skin model which consists of normal human-derived epidermal keratinocytes cultured to form a multilayered, highly differentiated model of the human epidermis. For this study, tissues were treated topically either overnight with the test materials prior to UVB exposure (pretreat group to assess prevention). Following treatment, DNA was extracted from the EpiDerm tissues and assayed for CPD content using an ELISA based method."}, "[4]": {"details": "ingredients tested individually at the concentrations used in the blends"}},
  "data": [
    {"smiles": "N=C(N)NN", "note": "[Aminoguanidine, aminoguanidine, reference compound]", "values": [
      {"measurement": "Percent AGE Prevention", "setting": "[1]; 8 mM", "result": "56.8 ± 0.5", "unit": "%"},
      {"measurement": "Percent AGE Reduction", "setting": "[2]; 8 mM", "result": "33.4 ± 3.3", "unit": "%"}
    ]},
    {"smiles": "COc1ccc(S(=O)(=O)N(CC(=O)NO)CC(C)C)cc1", "note": "[NNGH, reference compound]", "values": [
      {"measurement": "Percent Inhibition (collagenase)", "setting": "human recombinant MMP-1; 2 uM", "result": "94 ± 3", "unit": "%"}
    ]},
    {"smiles": "CC(C)C[C@H](NP(=O)(O)O[C@@H]1O[C@@H](C)[C@H](O)[C@@H](O)[C@H]1O)C(=O)N[C@@H](Cc1c[nH]c2ccccc12)C(=O)O", "note": "[Phosphoramidon, reference compound]", "values": [
      {"measurement": "Percent Inhibition (elastase)", "setting": "elastase; 0.2 mM", "result": "97 ± 0", "unit": "%"}
    ]},
    {"smiles": "Oc1ccc(/C=C/c2cc(O)cc(O)c2)cc1", "note": "[Resveratrol, 5-[(E)-2-(4-Hydroxyphenyl)ethen-1-yl]benzene-1,3-diol]", "values": [
      {"measurement": "Percent Inhibition (elastase)", "setting": "elastase; 0.075%", "result": "30 ± 3", "unit": "%"},
      {"measurement": "Percent Inhibition (elastase)", "setting": "elastase; 0.08%", "result": "33 ± 2", "unit": "%"},
      {"measurement": "elastase inhibition (in words)", "setting": "elastase; summary of Table 10", "result": "effective at inhibiting elastase activity on its own"},
      {"measurement": "Percent Inhibition (collagenase)", "setting": "human recombinant MMP-1; 0.075%", "result": "4 ± 0", "unit": "%"},
      {"measurement": "Percent Inhibition (collagenase)", "setting": "human recombinant MMP-1; 0.08%", "result": "7 ± 1", "unit": "%"},
      {"measurement": "Percent AGE Prevention", "setting": "[1]; 0.0375%", "result": "20.8 ± 2.4", "unit": "%"},
      {"measurement": "Percent AGE Prevention", "setting": "[1]; 0.075%", "result": "38.4 ± 7.1", "unit": "%"},
      {"measurement": "preventing AGE formation (in words)", "setting": "[1]; [4]", "result": "significantly effective"},
      {"measurement": "Percent AGE Reduction", "setting": "[2]; 0.0375%", "result": "28.2 ± 1.2", "unit": "%"},
      {"measurement": "Percent AGE Reduction", "setting": "[2]; 0.075%", "result": "32.8 ± 2.8", "unit": "%"},
      {"measurement": "reducing existing AGEs (in words)", "setting": "[2]; [4]", "result": "significantly effective"},
      {"measurement": "% Prevention of genomic DNA CPD formation", "setting": "[3]; 0.0375%", "result": 63, "unit": "%"},
      {"measurement": "% Prevention of genomic DNA CPD formation", "setting": "[3]; 0.075%", "result": 75, "unit": "%"},
      {"measurement": "CPD in genomic DNA", "setting": "[3]; 0.0375%", "result": "1.601 ± 0.180", "unit": "ng/mL"},
      {"measurement": "CPD in genomic DNA", "setting": "[3]; 0.075%", "result": "1.115 ± 0.085", "unit": "ng/mL"}
    ]},
    {"smiles": "Cc1c(C)c2c(c(C)c1O)CCC(C)(C(=O)O)O2", "note": "(stereo not drawn) [Trolox, reference compound]", "values": [
      {"measurement": "% Prevention of genomic DNA CPD formation", "setting": "[3]; 150 ug/ml", "result": 67, "unit": "%"},
      {"measurement": "CPD in genomic DNA", "setting": "[3]; 150 ug/ml", "result": "1.439 ± 0.088", "unit": "ng/mL"}
    ]}
  ]
}
